Data published in patent US20100105723A1, “5-PHENYL-6-PYRIDIN-4-YL-1,3-DIHYDRO-2H-IMIDAZO[4,5-b]PYRIDIN-2-ONE DERIVATIVES USEFUL AS A2B ADENOSINE RECEPTOR ANTAGONISTS” (priority 2006, published 2010).

Columns and labels:
[1] = target: T1, human A2B receptor (Homo sapiens, UniProt P29275); experiment: A2B radioligand filtration binding assay ([3H]-DPCPX competition); details: membranes from HEK293 cells expressing human A2B receptor; mean of at least two independent determinations; read-out: Ki hA2B
T1 construct: host or cells: HEK293
T1 sequence (P29275 1-332): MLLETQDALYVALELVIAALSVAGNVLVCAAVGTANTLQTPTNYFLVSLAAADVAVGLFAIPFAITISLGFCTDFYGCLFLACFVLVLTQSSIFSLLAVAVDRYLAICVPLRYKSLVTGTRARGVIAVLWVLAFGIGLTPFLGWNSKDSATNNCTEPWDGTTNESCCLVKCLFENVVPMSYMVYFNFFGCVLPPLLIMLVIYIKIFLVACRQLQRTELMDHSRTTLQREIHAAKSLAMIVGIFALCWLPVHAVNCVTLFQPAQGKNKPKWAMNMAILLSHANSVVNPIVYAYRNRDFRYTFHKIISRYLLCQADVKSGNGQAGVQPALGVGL
Method: For A2B, competition assays were carried out in filtration binding assay, incubating in polypropylene 96 well-plates (n^o 267245, NUNC) containing 2 μL of either 1% DMSO solution, test compound or 100 μM 5′NECA (SIGMA E-2387) for non-specific binding, 100 μg of A2B-membranes prepared from HEK293 cells stably expressing the human A2B receptor (Euroscreen ES-013-C) and 35 nM [^3H]-DPCPX (TRK1064, 128 Ci/mmol, Amersham), in a total volume of 200 μl of buffer A+2 Ul/ml adenosine deaminase, for 60 minutes at room temperature.

[2] = target: T2, human A3 receptor (Homo sapiens, UniProt P0DMS8); experiment: A3 radioligand filtration binding assay (3H-NECA); details: for inhibition at 1 µM: at indicated concentration (1000 nM), read-out: % inhibition of radioligand binding at indicated concentration, hA3; for Ki: membranes from HeLa cells transfected with human A3 receptor, read-out: Ki hA3
T2 construct: expressed in transfected cells; host or cells: HeLa
T2 sequence (P0DMS8 1-318): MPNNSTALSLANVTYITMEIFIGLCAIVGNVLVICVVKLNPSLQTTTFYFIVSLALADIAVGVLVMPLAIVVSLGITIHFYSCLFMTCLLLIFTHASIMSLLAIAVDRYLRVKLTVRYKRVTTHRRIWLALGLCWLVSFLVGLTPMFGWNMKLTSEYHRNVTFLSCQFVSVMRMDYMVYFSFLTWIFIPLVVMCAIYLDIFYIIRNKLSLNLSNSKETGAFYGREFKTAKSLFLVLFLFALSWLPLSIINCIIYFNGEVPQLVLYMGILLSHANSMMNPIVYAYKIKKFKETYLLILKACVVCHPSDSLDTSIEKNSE
Method: For A3 receptors, in filtration binding assay, 30 nM ^3H-NECA, […] unlabelled R-PIA, […] membranes from HeLa cells transfected with human A3 receptor, incubated 3 h. at room temperature in TrisHCl 50 mM pH 7.4, EDTA 1 mM, MgCl2 5 mM, 2 U/ml adenosin deaminase.

[3] = target: T3, human A2A receptor (Homo sapiens, UniProt P29274); experiment: A2A radioligand SPA binding assay (3H-ZM241385); details: for Ki: membranes from HeLa cells transfected with human A2A receptor, mean of at least two independent determinations, read-out: Ki hA2A
T3 construct: expressed in transfected cells; host or cells: HeLa
Method: For A2A receptors binding technology was SPA (Amhersham) with 3,3 nM ^3H-ZM241385, […] unlabelled NECA, membranes from HeLa cells transfected with human A2A receptor, incubated 1 h. at room temperature with 1 mg YSi-WGA beads in TrisHCl 50 mM pH 7.4, EDTA 1 mM, MgCl2 10 mM, 2 U/ml adenosin deaminase.

[4] = target: T4, human A1 receptor (Homo sapiens, UniProt P30542); experiment: A1 radioligand filtration binding assay (3H-DPCPX); details: membranes from CHO cells transfected with human A1 receptor; mean of at least two independent determinations; read-out: Ki hA1
T4 construct: host or cells: CHO
T4 sequence (P30542 1-326): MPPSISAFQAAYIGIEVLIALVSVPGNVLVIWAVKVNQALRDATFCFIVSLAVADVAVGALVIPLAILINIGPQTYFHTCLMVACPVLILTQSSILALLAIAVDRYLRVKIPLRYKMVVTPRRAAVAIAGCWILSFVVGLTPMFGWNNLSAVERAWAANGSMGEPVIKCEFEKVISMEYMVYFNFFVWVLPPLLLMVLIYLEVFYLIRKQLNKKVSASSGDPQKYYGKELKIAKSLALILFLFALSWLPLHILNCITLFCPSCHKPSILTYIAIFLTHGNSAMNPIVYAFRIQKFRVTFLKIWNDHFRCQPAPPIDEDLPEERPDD
Method: For A1 receptors a filtration binding assay was performed with 2 nM ^3H-DPCPX, […] unlabelled R-PIA, membranes from CHO cells transfected with human A1 receptor (Euroscreen ES-010-C) and incubated 90 min. at room temperature in Hepes 20 mM pH 7.4, NaCl 100 mM, MgCl2 10 mM and 2 U/ml adenosin deaminase.

T3 sequence (P29274 whole entry): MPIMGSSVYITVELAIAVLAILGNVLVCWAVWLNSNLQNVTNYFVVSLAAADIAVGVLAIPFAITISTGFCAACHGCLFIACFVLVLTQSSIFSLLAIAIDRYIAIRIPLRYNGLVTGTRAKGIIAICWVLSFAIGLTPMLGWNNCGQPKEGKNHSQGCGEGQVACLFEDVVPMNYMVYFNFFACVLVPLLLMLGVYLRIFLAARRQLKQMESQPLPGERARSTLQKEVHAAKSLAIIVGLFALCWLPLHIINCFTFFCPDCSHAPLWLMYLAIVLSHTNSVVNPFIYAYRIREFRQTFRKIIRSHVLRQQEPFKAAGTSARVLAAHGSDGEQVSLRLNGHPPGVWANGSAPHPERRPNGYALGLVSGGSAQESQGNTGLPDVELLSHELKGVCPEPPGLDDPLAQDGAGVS

Ki [1] [nM] | inhibition at 1 µM [2] [%] | Ki [2] [nM] | Ki [3] [nM] | Ki [4] [nM] | inhibition at 2.5 µM ([3]; at indicated concentration (2500 nM), read-out: % inhibition of radioligand binding at indicated concentration, hA2A) [%] | SMILES
0.9 | 19 | > 1000 | 721 | 35 |  | O=c1[nH]c2cc(-c3ccncc3F)c(-c3ccccc3F)nc2[nH]1 [Example 1, 5-(2-Fluorophenyl)-6-(3-fluoropyridin-4-yl)-1,3-dihydro-2H-imidazo[4,5-b]pyridin-2-one]
1.8 | 22 | > 1000 | 449 | 76 |  | O=c1[nH]c2cc(-c3ccncc3Cl)c(-c3ccccc3F)nc2[nH]1 [Example 2, 6-(3-Chloropyridin-4-yl)-5-(2-fluorophenyl)-1,3-dihydro-2H-imidazo[4,5-b]pyridin-2-one]
1.1 | 18 | > 1000 | > 2500 | 632 | 6 | O=c1[nH]c2cc(-c3c(F)cncc3F)c(-c3ccccc3F)nc2[nH]1 [Example 3, 6-(3,5-Difluoropyridin-4-yl)-5-(2-fluorophenyl)-1,3-dihydro-2H-imidazo[4,5-b]pyridin-2-one]
